Source: the supplement of paper PMC9663587

Experiments:
[1] = compound: CN(C)C/C=C/C(=O)NC1=CC=C(C=C1)C(=O)NC2=CC=CC(=C2)NC3=NC=NC(=C3)C4=CNC5=CC=CC=C54 [THZ-P1-2]
[2] = compound: Cc1cc(Nc2ncc(Cl)c(Nc3ccccc3S(=O)(=O)C(C)C)n2)c(OC(C)C)cc1C1CCNCC1 [Ceritinib/LDK378]
[3] = compound: CCNC(=O)c1noc(-c2cc(C(C)C)c(O)cc2O)c1-c1ccc(CN2CCOCC2)cc1 [Luminespib/NVP-AUY922]
[4] = compound: CN1CCN(CCOc2cc(OC3CCOCC3)c3c(Nc4c(Cl)ccc5c4OCO5)ncnc3c2)CC1 [Saracatinib/AZD0530]
[5] = compound: CN(C)C/C=C/C(=O)Nc1ccc(O[C@@H]2CCC[C@@H](Nc3ncc(Cl)c(-c4c[nH]c5ccccc45)n3)C2)cc1 [BSJ-01-175]
[6] = compound: CCCCOc1c(C(=O)c2c(F)cc(C)cc2F)c[nH]c2nncc1-2
[7] = compound: CC(=O)c1c(C)c2cnc(Nc3ccc(N4CCN(CCOCCOCCOCCNC(=O)COc5cccc6c5C(=O)N(C5CCC(=O)NC5=O)C6=O)CC4)cn3)nc2n(C2CCCC2)c1=O [BSJ-03-123]; test: increase in dead-cell fraction, 72 h; higher = more death;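 note: breast cancer cell lines in 384-well plates, stained with Hoechst plus LIVE/DEAD far red dye and imaged, cells above an LDR intensity threshold counted dead, Hoechst-negative corpses included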
[8] = compound: CCOc1cc2ncc(C#N)c(Nc3ccc(OCc4ccccn4)c(Cl)c3)c2cc1NC(=O)/C=C/CN(C)C [Neratinib/HKI272]; test: as above
[9] = compound: CCc1cnn2c(NCc3ccc[n+]([O-])c3)cc(N3CCCC[C@H]3CCO)nc12; test: as above
[10] = compound: CCN1CCN(Cc2ccc(Nc3ncc(F)c(-c4cc(F)c5nc(C)n(C(C)C)c5c4)n3)nc2)CC1; test: as above
[11] = compound: CN(C)C/C=C/C(=O)Nc1ccc(C(=O)Nc2cccc(Nc3ncc(Cl)c(-c4c[nH]c5ccccc45)n3)c2)cc1 [THZ1]; test: as above
[12] = compound: CC(=O)c1c(C)c2cnc(Nc3ccc(N4CCNCC4)cn3)nc2n(C2CCCC2)c1=O; test: as above
[13] = compound: CN(C)C/C=C/C(=O)Nc1ccc(C(=O)N2CCC[C@@H](Nc3ncc(Cl)c(-c4c[nH]c5ccccc45)n3)C2)cc1 [THZ531]; test: as above
[14] = compound: CN(C)C(=O)c1cc2cnc(Nc3ccc(N4CCNCC4)cn3)nc2n1C1CCCC1 [LEE011/Ribociclib]; test: as above
[15] = compound: CN1CC[C@H](c2c(O)cc(O)c3c(=O)cc(-c4ccccc4Cl)oc23)[C@H](O)C1 [Flavopiridol]; test: as above
[16] = compound: C=CC(=O)Nc1ccc(C(=O)Nc2[nH]nc3c2CN(C(=O)N[C@H](CN(C)C)c2ccccc2)C3(C)C)cc1 [YKL-5-124]; test: as above
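Throughout, for GR50, 72 h: breast cancer and non-malignant breast epithelial cell lines, Deep Dye Drop or Dye Drop imaging, nine half-log doses, GR normalized to time-zero plates and DMSO-only controls.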

PDX1258
GR50, 72 h [1]: 0.492 µM
GR50, 72 h [2]: 2.08 µM
GR50, 72 h [3]: 0.0101 µM
GR50, 72 h [4]: 0.722 µM
GR50, 72 h [5]: 0.00362 µM
GR50, 72 h [6]: < 0.001 µM
increase in dead-cell fraction ([7]; 0.001 µM): -0.0086
increase in dead-cell fraction ([7]; 0.003162 µM): 0.027
increase in dead-cell fraction ([7]; 0.01 µM): -0.004
increase in dead-cell fraction ([7]; 0.03162 µM): -0.0154
increase in dead-cell fraction ([7]; 0.1 µM): 0.0044
increase in dead-cell fraction ([7]; 0.3162 µM): -0.0026
increase in dead-cell fraction ([7]; 1 µM): -0.001
increase in dead-cell fraction ([7]; 3.162 µM): -0.0102
increase in dead-cell fraction ([7]; 10 µM): 0.284
increase in dead-cell fraction ([8]; 0.0003162 µM): 0.0046
increase in dead-cell fraction ([8]; 0.001 µM): 0.0126
increase in dead-cell fraction ([8]; 0.003162 µM): 0.0014
increase in dead-cell fraction ([8]; 0.01 µM): -0.0047
increase in dead-cell fraction ([8]; 0.03162 µM): 0.0084
increase in dead-cell fraction ([8]; 0.1 µM): 0.0159
increase in dead-cell fraction ([8]; 0.3162 µM): 0.0244
increase in dead-cell fraction ([8]; 1 µM): 0.0372
increase in dead-cell fraction ([8]; 3.162 µM): 0.118
increase in dead-cell fraction ([9]; 0.0001 µM): -0.0003
increase in dead-cell fraction ([9]; 0.0003162 µM): -0.0056
increase in dead-cell fraction ([9]; 0.001 µM): -0.0037
increase in dead-cell fraction ([9]; 0.003162 µM): 0.0067
increase in dead-cell fraction ([9]; 0.01 µM): 0.0568
increase in dead-cell fraction ([9]; 0.03162 µM): 0.537
increase in dead-cell fraction ([9]; 0.1 µM): 0.662
increase in dead-cell fraction ([9]; 0.3162 µM): 0.643
increase in dead-cell fraction ([9]; 1 µM): 0.658
increase in dead-cell fraction ([10]; 0.001 µM): 0.0001
increase in dead-cell fraction ([10]; 0.003162 µM): -0.0098
increase in dead-cell fraction ([10]; 0.01 µM): -0.0015
increase in dead-cell fraction ([10]; 0.03162 µM): -0.003
increase in dead-cell fraction ([10]; 0.1 µM): -0.0037
increase in dead-cell fraction ([10]; 0.3162 µM): 0.0003
increase in dead-cell fraction ([10]; 1 µM): 0.0382
increase in dead-cell fraction ([10]; 3.162 µM): 0.142
increase in dead-cell fraction ([10]; 10 µM): 0.354
increase in dead-cell fraction ([11]; 0.0001 µM): -0.0269
increase in dead-cell fraction ([11]; 0.0003162 µM): 0.0089
increase in dead-cell fraction ([11]; 0.001 µM): -0.01
increase in dead-cell fraction ([11]; 0.003162 µM): -0.0015
increase in dead-cell fraction ([11]; 0.01 µM): 0.0153
increase in dead-cell fraction ([11]; 0.03162 µM): 0.188
increase in dead-cell fraction ([11]; 0.1 µM): 0.237
increase in dead-cell fraction ([11]; 0.3162 µM): 0.304
increase in dead-cell fraction ([11]; 1 µM): 0.398
increase in dead-cell fraction ([12]; 0.0003162 µM): 0.0009
increase in dead-cell fraction ([12]; 0.001 µM): -0.0052
increase in dead-cell fraction ([12]; 0.003162 µM): -0.0004
increase in dead-cell fraction ([12]; 0.01 µM): 0.0095
increase in dead-cell fraction ([12]; 0.03162 µM): 0.0043
increase in dead-cell fraction ([12]; 0.1 µM): 0.0062
increase in dead-cell fraction ([12]; 0.3162 µM): -0.0028
increase in dead-cell fraction ([12]; 1 µM): -0.0014
increase in dead-cell fraction ([12]; 3.162 µM): 0.0061
increase in dead-cell fraction ([13]; 0.0001 µM): 0.0134
increase in dead-cell fraction ([13]; 0.0003162 µM): -0.0091
increase in dead-cell fraction ([13]; 0.001 µM): -0.0052
increase in dead-cell fraction ([13]; 0.003162 µM): -0.0071
increase in dead-cell fraction ([13]; 0.01 µM): -0.0127
increase in dead-cell fraction ([13]; 0.03162 µM): 0.0327
increase in dead-cell fraction ([13]; 0.1 µM): 0.239
increase in dead-cell fraction ([13]; 0.3162 µM): 0.246
increase in dead-cell fraction ([13]; 1 µM): 0.27
increase in dead-cell fraction ([14]; 0.001 µM): -0.0077
increase in dead-cell fraction ([14]; 0.003162 µM): 0.003
increase in dead-cell fraction ([14]; 0.01 µM): -0.0078
increase in dead-cell fraction ([14]; 0.03162 µM): -0.0297
increase in dead-cell fraction ([14]; 0.1 µM): -0.0249
increase in dead-cell fraction ([14]; 0.3162 µM): 0.0184
increase in dead-cell fraction ([14]; 1 µM): -0.0032
increase in dead-cell fraction ([14]; 3.162 µM): 0.0025
increase in dead-cell fraction ([14]; 10 µM): 0.0066
increase in dead-cell fraction ([15]; 0.0001 µM): 0.0131
increase in dead-cell fraction ([15]; 0.0003162 µM): -0.0092
increase in dead-cell fraction ([15]; 0.001 µM): -0.0132
increase in dead-cell fraction ([15]; 0.003162 µM): -0.0012
increase in dead-cell fraction ([15]; 0.01 µM): 0.0042
increase in dead-cell fraction ([15]; 0.03162 µM): -0.0156
increase in dead-cell fraction ([15]; 0.1 µM): 0.0246
increase in dead-cell fraction ([15]; 0.3162 µM): 0.0926
increase in dead-cell fraction ([15]; 1 µM): 0.288
increase in dead-cell fraction ([16]; 0.001 µM): 0.019
increase in dead-cell fraction ([16]; 0.003162 µM): 0.0602
increase in dead-cell fraction ([16]; 0.01 µM): 0.0734
increase in dead-cell fraction ([16]; 0.03162 µM): 0.107
increase in dead-cell fraction ([16]; 0.1 µM): 0.033
increase in dead-cell fraction ([16]; 0.3162 µM): 0.165
increase in dead-cell fraction ([16]; 1 µM): 0.153
increase in dead-cell fraction ([16]; 3.162 µM): 0.153
increase in dead-cell fraction ([16]; 10 µM): 0.298
